Experimental data as given in US11427615B2, “Peptide compound and application thereof, and composition containing peptide compound” (XDCEXPLORER (SHANGHAI) CO., LTD., priority 2017, dated 2022).
Non-standard residues stand in square brackets, D forms with d. Residues, ends and D or L forms follow the SMILES beside them. *: point of attachment. dPhe(2,4-Cl2) = N[C@H](Cc1ccc(Cl)cc1Cl)C(=O)O; Ala(2-furyl) = N[C@@H](Cc1ccco1)C(=O)O; Phe(4-F) = N[C@@H](Cc1ccc(F)cc1)C(=O)O; Pro(4,4-F2) = O=C(O)[C@@H]1CC(F)(F)CN1; dPhe(4-F) = N[C@H](Cc1ccc(F)cc1)C(=O)O; 2Nal = N[C@@H](Cc1ccc2ccccc2c1)C(=O)O; Arg(Me) = CNC(=N)NCCC[C@H](N)C(=O)O; Hyp = O=C(O)[C@@H]1C[C@@H](O)CN1; 2Thi = N[C@@H](Cc1cccs1)C(=O)O; Nonanoyl = CCCCCCCCC(=O)*; Pip = O=C(O)[C@@H]1CCCCN1; Ac6c = NC1(C(=O)O)CCCCC1; Aze = O=C(O)[C@@H]1CCN1; AEEA = NCCOCCOCC(=O)O; azaGly = NNC(=O)O

Target: T1, human kiss1 receptor (GPR54) (Homo sapiens, UniProt Q969F8)
T1 construct: host or cells: NFAT-bla CHO-K1 cells (Chinese hamster ovary), purchased recombinant cell line
T1 sequence (Q969F8 whole entry): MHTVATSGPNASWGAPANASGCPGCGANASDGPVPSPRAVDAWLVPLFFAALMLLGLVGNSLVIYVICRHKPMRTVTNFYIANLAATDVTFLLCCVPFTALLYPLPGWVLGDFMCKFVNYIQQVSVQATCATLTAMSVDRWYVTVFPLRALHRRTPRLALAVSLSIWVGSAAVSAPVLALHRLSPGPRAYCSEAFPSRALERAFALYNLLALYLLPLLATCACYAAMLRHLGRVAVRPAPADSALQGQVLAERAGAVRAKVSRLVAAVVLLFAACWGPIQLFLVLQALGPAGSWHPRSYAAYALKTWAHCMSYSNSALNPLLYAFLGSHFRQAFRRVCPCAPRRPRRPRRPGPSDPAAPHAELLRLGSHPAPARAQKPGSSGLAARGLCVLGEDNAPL
Assay: Kiss1 receptor (GPR54) binding activity of agonists, FRET detection in NFAT-bla CHO-K1 cells
Assay type: cell-based
Conditions: GPR54; measured according to the method of effect Embodiment 1; preliminary data; read-out: Preliminary measurement data (GPR54) EC50

Row | EC50 | Compound
1 | 0.011 nM | CNC(=N)NCCC[C@H](NC(=O)[C@H](CC(C)C)NC(=O)NNC(=O)[C@H](Cc1ccccc1)NC(=O)[C@@H](NC(=O)[C@H](CC(N)=O)NC(=O)[C@H](Cc1cccs1)NC(=O)[C@@H](Cc1ccc(Cl)cc1Cl)NC(C)=O)[C@@H](C)O)C(=O)N[C@@H](Cc1c[nH]c2ccccc12)C(N)=O [YA-178, Ac-[D-Phe(2,4-DiCl)]-Thi-Asn-Thr-Phe-azaGly-Leu-Arg(Me)-Trp-NH2] (Ac-[dPhe(2,4-Cl2)][2Thi]NTF[azaGly]L[Arg(Me)]W-NH2)
2 | 3.89 nM | CNC(=N)NCCC[C@H](NC(=O)[C@H](CC(C)C)NC(=O)[C@@H]1CCN1C(=O)[C@H](Cc1ccccc1)NC(=O)[C@@H](NC(=O)[C@H](CC(N)=O)NC(=O)[C@@H]1C[C@@H](O)CN1C(=O)[C@H](Cc1ccc(F)cc1)NC(C)=O)[C@@H](C)O)C(=O)N[C@@H](Cc1c[nH]c2ccccc12)C(N)=O [YA-190, Ac-Phe(4-F)-Hyp-Asn-Thr-Phe-Aze-Leu-Arg(Me)-Trp-NH2] (Ac-[Phe(4-F)][Hyp]NTF[Aze]L[Arg(Me)]W-NH2)
3 | 0.011 nM | CNC(=N)NCCC[C@H](NC(=O)[C@H](CC(C)C)NC(=O)NNC(=O)[C@H](Cc1ccccc1)NC(=O)[C@@H](NC(=O)[C@H](CC(N)=O)NC(=O)[C@@H]1C[C@@H](O)CN1C(=O)[C@@H](Cc1ccc(O)cc1)NC(C)=O)[C@@H](C)O)C(=O)N[C@@H](Cc1ccc2ccccc2c1)C(N)=O [YA-81, Ac-D-Tyr-Hyp-Asn-Thr-Phe-azaGly-Leu-Arg(Me)-2Nal-NH2] (Ac-[dY][Hyp]NTF[azaGly]L[Arg(Me)][2Nal]-NH2)
4 | 0.32 nM | CNC(=N)NCCC[C@H](NC(=O)[C@H](CC(C)C)NC(=O)NNC(=O)[C@H](Cc1ccccc1)NC(=O)[C@@H](NC(=O)[C@H](CC(N)=O)NC(=O)C1(NC(C)=O)CCCCC1)[C@@H](C)O)C(=O)N[C@@H](Cc1c[nH]c2ccccc12)C(N)=O [YA-266, Ac-A6c-Asn-Thr-Phe-azaG-Leu-Arg(Me)-Trp-NH2] (Ac-[Ac6c]NTF[azaGly]L[Arg(Me)]W-NH2)
5 | 50.3 nM | CNC(=N)NCCC[C@H](NC(=O)[C@H](CC(C)C)NC(=O)[C@@H]1CCN1C(=O)[C@H](Cc1ccccc1)NC(=O)[C@H](Cc1ccco1)NC(=O)[C@H](CC(N)=O)NC(=O)[C@@H]1CC(F)(F)CN1C(=O)[C@@H](Cc1ccc(O)cc1)NC(C)=O)C(=O)N[C@@H](Cc1c[nH]c2ccccc12)C(N)=O [YA-205, Ac-(D-Tyr)-DiFluorPro-Asn-2Fua-Phe-Aze-Leu-Arg(Me)-Trp-NH2] (Ac-[dY][Pro(4,4-F2)]N[Ala(2-furyl)]F[Aze]L[Arg(Me)]W-NH2)
6 | 1.13 nM | CNC(=N)NCCC[C@H](NC(=O)[C@H](CC(C)C)NC(=O)[C@@H]1CCN1C(=O)[C@H](Cc1ccccc1)NC(=O)[C@@H](NC(=O)[C@H](CC(N)=O)NC(=O)[C@@H]1CCCCN1C(=O)[C@@H](Cc1ccc(F)cc1)NC(C)=O)[C@@H](C)O)C(=O)N[C@@H](Cc1c[nH]c2ccccc12)C(N)=O [YA-211, Ac-[D-Phe(4-F)]-(S-Pip)-Asn-Thr-Phe-Aze-Leu-Arg(Me)-Trp-NH2] (Ac-[dPhe(4-F)][Pip]NTF[Aze]L[Arg(Me)]W-NH2)
7 | 0.544 nM | CNC(=N)NCCC[C@H](NC(=O)[C@H](CC(C)C)NC(=O)[C@@H]1CCN1C(=O)[C@H](Cc1ccccc1)NC(=O)[C@@H](NC(=O)[C@H](CC(N)=O)NC(=O)[C@@H]1CCCCN1C(=O)[C@@H](Cc1ccc(O)cc1)NC(C)=O)[C@@H](C)O)C(=O)N[C@@H](Cc1c[nH]c2ccccc12)C(N)=O [YA-194, Ac-D-Tyr-(S-Pip)-Asn-Thr-Phe-Aze-Leu-Arg(Me)-Trp-NH2] (Ac-[dY][Pip]NTF[Aze]L[Arg(Me)]W-NH2)
8 | 0.02 nM | CCCCCCCCC(=O)NCCOCCOCC(=O)N[C@H](Cc1ccc(O)cc1)C(=O)N1C[C@H](O)C[C@H]1C(=O)N[C@@H](CC(N)=O)C(=O)N[C@H](C(=O)N[C@@H](Cc1ccccc1)C(=O)NNC(=O)N[C@@H](CC(C)C)C(=O)N[C@@H](CCCNC(=N)NC)C(=O)N[C@@H](Cc1c[nH]c2ccccc12)C(N)=O)[C@@H](C)O [YA-295, Nonanoyl-OEG-D-Tyr-Hyp-Asn-Thr-Phe-azaGly-Leu-Arg(Me)-Trp-NH2] ({Nonanoyl-AEEA}-[dY][Hyp]NTF[azaGly]L[Arg(Me)]W-NH2)
9 | 0.007 nM | CNC(=N)NCCC[C@H](NC(=O)[C@H](CC(C)C)NC(=O)NNC(=O)[C@H](Cc1ccccc1)NC(=O)[C@@H](NC(=O)[C@H](CC(N)=O)NC(=O)[C@@H]1CC(F)(F)CN1C(=O)[C@@H](Cc1ccc(O)cc1)NC(C)=O)[C@@H](C)O)C(=O)N[C@@H](Cc1c[nH]c2ccccc12)C(N)=O [YA-80, Ac-D-Tyr-Pro(diF)-Asn-Thr-Phe-azaGly-Leu-Arg(Me)-Trp-NH2] (Ac-[dY][Pro(4,4-F2)]NTF[azaGly]L[Arg(Me)]W-NH2)

Same assay, conditions: NFAT-bla CHO-K1 cells that express human kiss1 receptor (GPR54); FRET; cells cultured with compound for 4 hours; read-out: GPR54 EC50/nM

Row | EC50 | Compound
10 | 24.3 nM | CNC(=N)NCCC[C@H](NC(=O)[C@H](CC(C)C)NC(=O)[C@@H]1CCN1C(=O)[C@H](Cc1ccccc1)NC(=O)[C@@H](NC(=O)[C@H](CC(N)=O)NC(=O)[C@@H]1C[C@@H](O)CN1C(=O)[C@H](Cc1ccc(F)cc1)NC(C)=O)[C@@H](C)O)C(=O)N[C@@H](Cc1c[nH]c2ccccc12)C(N)=O [YA-190, Ac-Phe(4-F)-Hyp-Asn-Thr-Phe-Aze-Leu-Arg(Me)-Trp-NH2] (Ac-[Phe(4-F)][Hyp]NTF[Aze]L[Arg(Me)]W-NH2)
